In paper PMC8509428, “The Phenoxyalkyltriazine Antagonists for 5-HT6 Receptor with Promising Procognitive and Pharmacokinetic Properties In Vivo in Search for a Novel Therapeutic Approach to Dementia Diseases” (International Journal of Molecular Sciences, 2021):
Read-outs that look alike come from different tables or passages of the source.

How the values were obtained:
[1] = test system: Salmonella Typhimurium TA100; format: cell-based
Excerpt: The used Salmonella Typhimurium TA100 strain has base pair substitution (hisG46 mutation, which target is GGG). […] The occurrence of revertants was visualized by pH indicator dye which was present in the bacterial medium.

hepatoma HepG2 cell line = assay: Hepatotoxicity, HepG2 viability (MTS); format: cell-based; conditions: 0.1–100 µM, 72 h
Protocol: Cells were grown under previously described conditions. […] The cells’ viability was determined by CellTiter 96® AQueous Non-Radioactive Cell Proliferation Assay (MTS), which was purchased from Promega® (Madison, WI, USA). The absorbance was measured using a microplate reader EnSpire (PerkinElmer, Waltham, MA USA) at 490 nm. All compounds were tested in quadruplicate.

rats [2] = assay: Elevated plus-maze (EPM) test; format: in vivo, rat; conditions: for Open Arms % of entries / Open Arms % of time / Open Arms Distance / Open Arms Entries / Open Arms Time: mean ± SEM
Excerpt: The testing procedure was based on a method described by. Plus-maze apparatus (an automated device produced by Campden Instruments Ltd. (Leicestershire, UK) made of durable, high density, non-porous black plastic, elevated to a height of 50 cm, consisted of two open arms (50 × 10 cm) and two closed arms (50 × 10 cm, and 30 cm high walls), arranged so that the two arms of each type were opposite each other. The floor of the plus-maze was made of infrared transparent material what means that there are no visible sensors. Plus-maze apparatus was connected to PC software by control chassis. The experiments were conducted in a darkened room, only the center of the maze was illuminated with low-intensity light (30 lux measured on the maze level). Each rat was gently placed in the center of the plus-maze, facing one of the closed arms, immediately after a 5-min adaptation period in a plastic black box (60 × 60 × 35 cm), to increase the overall activity in the EPM. During a 5-min test period, automated Motor Monitor System recorded the number of entries into the closed and open arms and the time spent in either type of arms. The device counted an effective arm-entry when the four paws of a rat were into any arm. The maze was thoroughly cleaned after each trial. The EPM test is an “unconditional” anxiety-like test based on rodents’ natural aversion to heights and open space.

rats [3] = assay: Forced swim test (FST); format: in vivo, rat; conditions: for Immobility Time: 60 min before test, mean ± SEM
Protocol: The experiment was carried out according to the method of [54]. On the first day of the experiment, the animals were gently individually placed in Plexiglas cylinders (40 cm high, 18 cm in diameter) containing 15 cm of water maintained at 23–25 °C for 15 min. On removal from water, the rats were placed for 30 min in a Plexiglas box under 60-W bulb to dry. On the following day (24 h later), the rats were replaced in the cylinder and the total duration of immobility was recorded during the whole 5-min test period. The immobility was assigned when no additional activity was observed other than that necessary to keep the rat’s head above the water. Fresh water was used for each animal.

[4] = Bi-directional Caco-2 permeability assay; format: in vitro ADME; conditions: human, pH 7.4, Caco-2, 10 µM, triplicate
5-HT1AR = molecular target: T1, 5-HT1AR (Homo sapiens, UniProt P08908); assay: Radioligand binding assay (RBA), 5-HT1AR; conditions: ± SD; displacement of [3H]-8-OHDPAT, HEK-293 cells; read-out: Ki 5-HT1A (converted)
T1 construct: expressed in transfected cells; host or cells: HEK-293
T1 sequence (P08908 1-422): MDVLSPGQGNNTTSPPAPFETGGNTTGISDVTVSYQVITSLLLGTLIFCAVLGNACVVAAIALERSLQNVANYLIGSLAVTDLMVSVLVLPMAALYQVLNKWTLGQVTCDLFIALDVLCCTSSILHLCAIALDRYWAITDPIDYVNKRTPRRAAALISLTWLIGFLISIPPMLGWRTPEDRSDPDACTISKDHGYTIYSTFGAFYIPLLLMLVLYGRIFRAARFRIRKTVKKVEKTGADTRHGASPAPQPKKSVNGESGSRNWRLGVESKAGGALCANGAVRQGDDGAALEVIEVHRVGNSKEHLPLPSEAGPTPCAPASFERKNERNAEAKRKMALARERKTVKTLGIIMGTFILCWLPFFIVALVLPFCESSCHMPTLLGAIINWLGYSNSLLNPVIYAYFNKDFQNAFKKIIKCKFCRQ
Protocol: The cells used in the radioligand binding assays receptor 5-HT1A were stably expressed in HEK-293 cells. Transfections were performed with the use of Lipofectamine 2000. The binding procedure was accomplished via the displacement of 2.5 nM [^3H]-8-OHDPAT (135.2 Ci/mmol) for 5-HT1AR. Each compound was tested in triplicate in seven to eight different concentrations (10^−11 to 10^−4 M). The inhibition constants (Ki) were calculated using the Cheng–Prusoff equation [45] and the results are expressed as the mean of at least two independent experiments.

[5] = molecular target: human serotonin 5-HT6 receptor (Homo sapiens, UniProt P50406); assay: Functional assay for 5-HT6 receptor (cAMP, 1321N1 cells)
human serotonin 5-HT6 receptor, sequence (P50406 whole entry): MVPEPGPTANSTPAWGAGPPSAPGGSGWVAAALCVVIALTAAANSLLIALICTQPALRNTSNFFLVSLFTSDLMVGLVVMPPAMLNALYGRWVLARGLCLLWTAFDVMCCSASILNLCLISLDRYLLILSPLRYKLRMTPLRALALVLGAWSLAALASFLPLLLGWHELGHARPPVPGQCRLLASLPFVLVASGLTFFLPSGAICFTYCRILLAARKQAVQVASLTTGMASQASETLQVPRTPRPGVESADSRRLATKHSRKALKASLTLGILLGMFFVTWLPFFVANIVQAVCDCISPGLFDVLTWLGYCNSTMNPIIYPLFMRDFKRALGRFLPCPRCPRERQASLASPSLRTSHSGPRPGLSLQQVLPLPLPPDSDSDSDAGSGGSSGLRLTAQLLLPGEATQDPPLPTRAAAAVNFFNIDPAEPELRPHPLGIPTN

[6] = 1321-N1, read-out: 5-HT6 Antagonist Mode Emax
[7] = 1321-N1, read-out: 5-HT6R Agonist Mode Emax

Compound	Binomial B-Value ([1]; 1 µM)	Number of Revertants ± SD ([1]; 1 µM)	Binomial B-Value ([1]; 10 µM)	Number of Revertants ± SD ([1]; 10 µM)	hepatotoxicity effect, HepG2 viability (hepatoma HepG2 cell line)	Open Arms % of entries (rats [2]; 0.3 mg/kg i.p.) [%]	Open Arms % of time (rats [2]; 0.3 mg/kg i.p.) [%]	Open Arms Distance (rats [2]; 0.3 mg/kg i.p.) [cm]	Open Arms Entries (rats [2]; 0.3 mg/kg i.p.)	Open Arms Time (rats [2]; 0.3 mg/kg i.p.) [s]	Open Arms % of entries (rats [2]; 1 mg/kg i.p.) [%]	Open Arms % of time (rats [2]; 1 mg/kg i.p.) [%]	Open Arms Distance (rats [2]; 1 mg/kg i.p.) [cm]	Open Arms Entries (rats [2]; 1 mg/kg i.p.)	Open Arms Time (rats [2]; 1 mg/kg i.p.) [s]	Open Arms % of entries (rats [2]; 3 mg/kg i.p.) [%]	Open Arms % of time (rats [2]; 3 mg/kg i.p.) [%]	Open Arms Distance (rats [2]; 3 mg/kg i.p.) [cm]	Open Arms Entries (rats [2]; 3 mg/kg i.p.)	Open Arms Time (rats [2]; 3 mg/kg i.p.) [s]	also measured
CCC(Oc1cccc(Cl)c1Cl)c1nc(N)nc(N2CCN(C)CC2)n1 (racemic) [Compound 2, (RS)-4-[1-(2,3-dichlorophenoxy)propyl]-6-(4-methylpiperazin-1-yl)-1,3,5-triazin-2-amine]	0.2601	12.00 ± 7.55	0.5425	13.33 ± 2.31	no hepatotoxicity effect	23.97 ± 4.97	14.85 ± 3.30	423 ± 87	6.50 ± 1.60	36.85 ± 8.90	26.53 ± 3.69	10.10 ± 1.20	279 ± 45	5.86 ± 0.90	24.75 ± 3.19	41.89 ± 3.37	30.00 ± 3.60	914 ± 126	13.00 ± 2.30	72.23 ± 7.30	increase of distance travelled in the open arms vs vehicle (rats [2]; 3 mg/kg i.p.): 134%; increase of number of open-arm entries vs vehicle (rats [2]; 3 mg/kg i.p.): 160%; increase of percentage of time spent in open arms vs vehicle (rats [2]; 3 mg/kg i.p.): 137%; increase of time spent in the open arms vs vehicle (rats [2]; 3 mg/kg i.p.): 120%; increase of percentage of entries into open arms vs vehicle (rats [2]; 3 mg/kg i.p., not significant): 68%; dose with anxiolytic-like activity in EPM test (rats [2]; i.p.): 3 mg/kg; Immobility Time (rats [3]; 1 mg/kg i.p.): 223.13 ± 11.4 s; Immobility Time (rats [3]; 3 mg/kg i.p.): 220.71 ± 4.7 s; decrease of immobility time vs vehicle-treated group (rats [3]; 10 mg/kg): 25%; Immobility Time (rats [3]; 10 mg/kg i.p.): 171.38 ± 12.80 s; Papp A→B at 2 h, 10 µM [4]: 50.3 ± 6.22 ×10⁻⁶ cm/s; Papp B→A at 2 h, 10 µM [4]: 21.1 ± 2.14 ×10⁻⁶ cm/s; Ki (5-HT1AR): 0.521 µM; Emax [5, 6]: 96%; Emax [5, 7]: 5 ± 1.1%
CCC(Oc1ccccc1)c1nc(N)nc(N2CCN(C)CC2)n1 (racemic) [Compound 3, (RS)-4-(4-methylpiperazin-1-yl)-6-(1-phenoxypropyl)-1,3,5-triazin-2-amine]	0.0001	0.33 ± 0.58	0.0324	1.67 ± 1.53	no hepatotoxicity effect	28.54 ± 6.70	9.84 ± 1.50	340 ± 59	5.28 ± 0.42	24.27 ± 3.41	33.64 ± 2.70	18.30 ± 4.10	646 ± 145	8.43 ± 1.36	44.24 ± 9.71	24.39 ± 7.60	7.03 ± 2.00	231 ± 87	4.17 ± 1.10	19.00 ± 5.50	anxiolytic-like activity in EPM test (rats [2]; i.p., 60 min before test): did not show anxiolytic-like activity; Immobility Time (rats [3]; 1 mg/kg i.p.): 177.50 ± 6.1 s; decrease of immobility time vs vehicle-treated group (rats [3]; 3 mg/kg): about 30%; Immobility Time (rats [3]; 3 mg/kg i.p.): 159.13 ± 13.3 s; decrease of immobility time vs vehicle-treated group (rats [3]; 10 mg/kg): about 36%; Immobility Time (rats [3]; 10 mg/kg i.p.): 134.63 ± 16.7 s; Papp A→B at 2 h, 10 µM [4]: 3.16 ± 1.35 ×10⁻⁶ cm/s; Papp B→A at 2 h, 10 µM [4]: 10.1 ± 0.15 ×10⁻⁶ cm/s; Ki (5-HT1AR): 3.64 µM; Emax [5, 6]: 100%; Emax [5, 7]: 9 ± 1.4%
